Test: Human HepG2 cell viability assay in 384 well format
Assay type: toxicity, cell-based
Design: dose 125 nL, time 70.5 hour; cytotoxicity at 70.5 h: concentration not given beside the values
Conditions: HepG2 cells, read-out: Inhibition
In the case of `CC(=O)Nc1ncc(S(=O)(=O)Nc2cccc(C)c2)s1`, the cytotoxicity at 70.5 h is reported as -12.5%. `COCCCNc1cc(C)nn2cnnc12` gave a cytotoxicity at 70.5 h of -4.69%. Work on `C=C/C=c1\c(=C/C)oc2c(NCc3ccccc3)nc(CC)nc12` yielded a cytotoxicity at 70.5 h of 11.2%. Work on `O=C(CSc1nc2nncc-2c(O)n1-c1ccccc1)N1CCOCC1` yielded a cytotoxicity at 70.5 h of -10.6%. `CN1CCc2nc3c(c(N)c2C1)CCCN3C` showed a cytotoxicity at 70.5 h of -16.1%. `Cc1c(CN2CCOCC2)c(O)n(CCc2ccccc2)c(=O)c1C#N` showed a cytotoxicity at 70.5 h of -9.75%. With `CCc1ccc(NC(=O)c2n[nH]c(-n3cnnc3)n2)cc1` the cytotoxicity at 70.5 h was -6.66%. `COCC(=O)Nc1nn(Cc2ccc(F)cc2)cc1Cl` showed a cytotoxicity at 70.5 h of -5.91%. Compound `CCN(CC)C(=O)c1ccn(COc2ccc(F)cc2F)n1` has a cytotoxicity at 70.5 h of -7.67%. In the case of `CCC(C)NC(=O)c1ccn(COc2ccccc2Cl)n1` (centres undefined), the cytotoxicity at 70.5 h is reported as -1.06%. For `CCN(Cc1nonc1C)C(=O)c1ccc(Br)o1`, the cytotoxicity at 70.5 h was -4.49%. `Cc1c2nnn(CC(=O)N(C)C)c(=O)c2nn1C` showed a cytotoxicity at 70.5 h of -8.25%. `Cc1nn(C)c2c(=O)n(Cc3ccc(Cl)cc3)nnc12` gave a cytotoxicity at 70.5 h of -9.56%. With `Cc1nn(C)c2c(NCc3cccnc3)nc(C(C)C)nc12` the cytotoxicity at 70.5 h was 12.4%. Compound `COc1ccccc1Nc1nc2c(C)nn(C)c2c(=O)n1C` has a cytotoxicity at 70.5 h of 26.9%. `CCC(=O)N1CCC2(CCC(N3CCCC3)c3ccccc32)CC1` (centres undefined) gave a cytotoxicity at 70.5 h of -6.38%. For `Cc1cnc(N2C[C@@H]3[C@@H](C2)OCC(=O)N3CCN(C)C)nc1`, the cytotoxicity at 70.5 h was -3.72%. In the case of `Cc1nnc([C@]23COC[C@H]2CN(Cc2cccs2)C3)o1`, the cytotoxicity at 70.5 h is reported as 27.6%. `O=C(c1ccnnc1)N1C[C@@H]2C[C@@H](c3nc(C4CC4)cs3)O[C@@H]2C1` showed a cytotoxicity at 70.5 h of -3.56%. For `CN(C)Cc1cn2c(n1)CN(C(=O)Cc1ccsc1)CC2`, the cytotoxicity at 70.5 h was -0.503%. In the case of `CN(C)CC1CN(C(=O)CCc2ccccc2)Cc2nccn2C1` (centres undefined), the cytotoxicity at 70.5 h is reported as 1.84%. Compound `O=C(c1ccc2ccccc2n1)N1CCC2(CCN2c2ncccn2)C1` (centres undefined) has a cytotoxicity at 70.5 h of 2.64%. Work on `Cc1noc([C@@H]2C[C@H]3OCC[C@H]3N(C(C)C)C2)n1` yielded a cytotoxicity at 70.5 h of 6.58%. `O=C1NC2(CCN(C(=O)N3CCOCC3)CC2)CC1c1cccnc1` (centres undefined) showed a cytotoxicity at 70.5 h of 3.42%. For `Cc1ccc(CN2Cc3c(C(=O)N4CCCC4)nn(C)c3C2)s1`, the cytotoxicity at 70.5 h was 22.4%. Work on `COCCN1CC[C@@H]2OC(COCC(=O)N3CCCC3)CC[C@@H]21` (some centres undefined) yielded a cytotoxicity at 70.5 h of -3.03%. Compound `CS(=O)(=O)NCc1cnc2n1CCN(Cc1ccco1)CC2` has a cytotoxicity at 70.5 h of -6.2%. `Cc1nc(CO[C@@H]2CN(Cc3cccs3)[C@@H]3COC[C@@H]32)cs1` gave a cytotoxicity at 70.5 h of -9.88%. With `Cc1ccc(CN2C[C@@H](OCc3csc(C)n3)[C@H]3COC[C@H]32)s1` the cytotoxicity at 70.5 h was -10.6%. With `Cc1ncsc1CN1C[C@H](C(=O)NCC2CC2)[C@@H]2CCO[C@@H]2C1` the cytotoxicity at 70.5 h was -7.28%. Work on `CS(=O)(=O)N1CCOCC2(CCN(C(=O)c3ccncc3)CC2)C1` yielded a cytotoxicity at 70.5 h of -6.51%. Work on `COc1cc(N2C[C@H](C(=O)NCC3CC3)[C@@H]3CCO[C@@H]3C2)ncn1` yielded a cytotoxicity at 70.5 h of -11.6%. For `Cc1nc(CO[C@@H]2CN(Cc3ccsc3)[C@@H]3COC[C@@H]32)cs1`, the cytotoxicity at 70.5 h was -6.52%. In the case of `CS(=O)(=O)NCc1cnc2n1CCN(Cc1cccs1)CC2`, the cytotoxicity at 70.5 h is reported as -4.2%. Work on `Cc1ccc(CN2CC3(CCN(C(=O)c4cscn4)C3)C2)o1` yielded a cytotoxicity at 70.5 h of -7.14%. In the case of `O=C(c1cscn1)N1CCC2(CN(Cc3ccoc3)C2)C1`, the cytotoxicity at 70.5 h is reported as -9.97%. `CS(=O)(=O)NCc1cnc2n1CCN(Cc1ccccn1)CC2` gave a cytotoxicity at 70.5 h of -1.27%. For `Cc1ccc(C(=O)N2C[C@@H]3CCCO[C@@H]3[C@H](N(C)Cc3ccco3)C2)o1`, the cytotoxicity at 70.5 h was 28.7%. `Cc1ccc2nc(C3CCN(CC4CC4)CC3)nn2c1` showed a cytotoxicity at 70.5 h of 32.6%. Compound `O=S(=O)(C1CC1)N1CCO[C@H]2[C@@H](Oc3cccnc3)CC[C@@H]21` has a cytotoxicity at 70.5 h of -5.72%. `O=S(=O)(C1CC1)N1CCO[C@H]2[C@H](Oc3cccnc3)CC[C@@H]21` showed a cytotoxicity at 70.5 h of -4.91%. `c1cc(-c2ccc3c(c2)CCC32CCN(c3nncs3)CC2)ccn1` gave a cytotoxicity at 70.5 h of -2.69%. Work on `CC(C)CNC(=O)[C@H]1C[C@@H]2CN(Cc3cccnc3)C[C@H]1O2` yielded a cytotoxicity at 70.5 h of -2.17%. `c1cnc(N2CCCC3(CCN(c4ncccn4)C3)C2)nc1` (centres undefined) gave a cytotoxicity at 70.5 h of 26.5%. With `CN(C)CC1CN(Cc2cccc(C#N)c2)Cc2nccn2C1` (centres undefined) the cytotoxicity at 70.5 h was -6.48%. `CN(C)CCOCC1CN(Cc2cccc(F)c2)Cc2nccn2C1` (centres undefined) gave a cytotoxicity at 70.5 h of -4.81%. With `CCN(CC)CC1CN(Cc2cccc(C#N)c2)Cc2nccn2C1` (centres undefined) the cytotoxicity at 70.5 h was 5.06%. `CN(C)CCN1CC[C@@H]2O[C@@H](COCC(=O)N3CCCC3)CC[C@@H]21` gave a cytotoxicity at 70.5 h of -0.268%. With `CS(=O)(=O)NCc1cnc2n1CCN(Cc1cccnc1)CC2` the cytotoxicity at 70.5 h was -9.03%. `Cc1nc(CO[C@@H]2CN(Cc3cccnc3)[C@@H]3COC[C@@H]32)cs1` gave a cytotoxicity at 70.5 h of -10.3%. With `COCCN1C[C@@H]2[C@@H](OC)CCN(Cc3ccc(C)o3)[C@@H]2C1` the cytotoxicity at 70.5 h was -1.05%. For `c1cncc(O[C@H]2CC[C@H]3[C@H]2OCCN3C2CCC2)c1`, the cytotoxicity at 70.5 h was -3.23%. For `CN1CC(=O)N(c2cnn(C)c2)CC12CCN(Cc1cccs1)C2` (centres undefined), the cytotoxicity at 70.5 h was -1.01%. With `O=C(O)c1cnc2c(Br)cccc2c1O` the cytotoxicity at 70.5 h was -5.88%.
